Our source for the IC50 values is patent US8163909B2, “Substituted hydroxyethyl amine compounds as beta-secretase modulators and methods of use” (Amgen Inc., priority 2007, dated 2012).

Assay [1] deals with Beta Secretase enzyme (BACE) (Homo sapiens, UniProt P56817). The experiment in a line: In vitro enzymatic BACE FRET (fluorescence resonance energy transfer) assay.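 Also: fluorescence read after 1 h with 50 nM quenched peptide substrate spanning the BACE cleavage site, in pH 4.2 acetate buffer containing 10% DMSO and nonionic detergent.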 It is filed as biochemical.
Assay [2] concerns Aβ40 in conditioned medium of cells stably expressing Amyloid Precursor Protein (APP). The experiment in a line: In vitro BACE cell-based assay (Aβ40 in conditioned medium, sandwich ELISA).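 Also: compounds added as a dilution series, secreted peptide quantified by europium time-resolved fluorescence readout, potency fitted from percent of control versus compound concentration.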 The conditions noted are these: Homo sapiens.
The mark [3] stands for this setting: BACE enzyme FRET assay, read-out: BACE1 FRET assay (IC50).
Setting [4] is: HEK293, HEK cells, cell-based assay, read-out: HEK cell assay (IC50).
Where [5] appears, read: Table 1, read-out: BACE1 FRET assay.
Setting [6] is: HEK293, Table 1, HEK cells, read-out: HEK cell assay.

Where two headings read alike, the source gives them in different places.

Chain of Beta Secretase enzyme (BACE) (P56817 46-501): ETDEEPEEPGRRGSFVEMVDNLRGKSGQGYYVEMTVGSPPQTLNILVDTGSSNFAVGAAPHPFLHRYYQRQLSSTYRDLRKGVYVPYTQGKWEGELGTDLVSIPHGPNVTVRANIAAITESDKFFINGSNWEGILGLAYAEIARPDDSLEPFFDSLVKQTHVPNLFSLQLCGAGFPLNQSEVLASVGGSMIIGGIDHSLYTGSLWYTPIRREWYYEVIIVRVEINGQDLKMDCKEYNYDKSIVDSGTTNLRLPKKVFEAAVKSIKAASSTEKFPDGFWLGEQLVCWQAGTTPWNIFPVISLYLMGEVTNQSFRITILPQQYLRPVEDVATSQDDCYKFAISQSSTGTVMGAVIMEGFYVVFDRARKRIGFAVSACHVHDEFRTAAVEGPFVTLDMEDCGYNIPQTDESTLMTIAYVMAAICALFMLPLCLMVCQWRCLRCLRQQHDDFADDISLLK

With `COCC(=O)N[C@@H](Cc1cccc(F)c1)[C@H](O)CN[C@H]1CC2(CC(F)(F)C2)Oc2ncc(CC(C)(F)F)cc21` [compound 280], the values for the IC50 in assay [1] (setting [3]) and in assay [2] (setting [4]) were 18.9 nM and 175 nM, respectively.

For `CC(=O)N[C@@H](Cc1ccc2c(c1)OCO2)[C@H](O)CN[C@H]1CC2(CCC2)Oc2ccc(CC(C)(C)C)cc21` [compound 281], the IC50 in assay [1] (setting [3]) came to 11.2 nM; in assay [2] (setting [4]), 59.7 nM.

On to `COCC(=O)N[C@@H](Cc1ccc2c(c1)OCO2)[C@H](O)CN[C@H]1CC2(CCC2)Oc2ncc(CC(C)(C)C)cc21` [compound 282], for which the IC50 in assay [1] (setting [3]) worked out at 6.13 nM; in assay [2] (setting [4]), 16.8 nM.

For the compound `CC(C)(C)Cc1cnc2c(c1)[C@@H](NC[C@@H](O)[C@H](Cc1ccc3c(c1)OCO3)NC(=O)CF)CC1(CCC1)O2` [compound 283], the IC50 was determined as 7.51 nM in assay [1] (setting [3]) and 19 nM in assay [2] (setting [4]).

For the compound `COCC(=O)N[C@@H](Cc1cccc(F)c1)[C@H](O)CN[C@H]1CC2(CCC2)Oc2ncc(CC(C)(C)F)cc21` [compound 284], the IC50 came out at 2.65 nM in assay [1] (setting [3]) and 4.77 nM in assay [2] (setting [4]).

On to `COCC(=O)N[C@@H](Cc1ccc2c(c1)OCO2)[C@H](O)CN[C@H]1CC2(CCC2)Oc2ncc(CC(C)(C)F)cc21` [compound 285], for which the results for the IC50 in assay [1] (setting [3]) and in assay [2] (setting [4]) were 57 nM and 73.8 nM, respectively.

Consider `COCC(=O)N[C@@H](Cc1cc(F)cc(F)c1)[C@H](O)CN[C@H]1CC2(CCC2)Oc2ncc(CC(C)(C)F)cc21` [compound 286], for which the IC50 was 3.32 nM in assay [1] (setting [3]) and 5.99 nM in assay [2] (setting [4]).

As to `CC(C)(C)Cc1cnc2c(c1)[C@@H](NC[C@@H](O)[C@H](Cc1ccc3c(c1)OCO3)NC(=O)C(F)(F)F)CC1(CCC1)O2` [compound 288], the IC50 in assay [1] (setting [3]) came out at 53.9 nM; in assay [2] (setting [4]), 455 nM.

On to `COC(=O)N[C@@H](Cc1ccc2c(c1)OCO2)[C@H](O)CN[C@H]1CC2(CCC2)Oc2ncc(CC(C)(C)C)cc21` [compound 289], for which the IC50 is 77.5 nM in assay [1] (setting [3]) and 196 nM in assay [2] (setting [4]).

`COCC(=O)N[C@@H](Cc1ccc2c(c1)OCO2)[C@H](O)CN[C@H]1CC2(CCC2)Oc2ccc(CC(C)(C)C)cc21` [compound 290]: the IC50 amounted to 23.1 nM in assay [1] (setting [3]) and 54.9 nM in assay [2] (setting [4]).

Regarding `COCC(=O)N[C@@H](Cc1ccc2c(c1)OC(F)(F)O2)[C@H](O)CN[C@H]1CC2(CCC2)Oc2ncc(CC(C)(C)C)cc21` [compound 291], the IC50 in assay [1] (setting [3]) was 41.4 nM; in assay [2] (setting [4]) it was 382 nM.

Consider `CC(=O)N[C@@H](Cc1ccc2c(c1)OC(F)(F)O2)[C@H](O)CN[C@H]1CC2(CCC2)Oc2ncc(CC(C)(C)C)cc21` [compound 292], for which the values for the IC50 in assay [1] (setting [3]) and in assay [2] (setting [4]) were 32.5 nM and 159 nM, respectively.

Turning to `COCC(=O)N[C@@H](Cc1ccc2c(c1)OC(C)(C)O2)[C@H](O)CN[C@H]1CC2(CCC2)Oc2ncc(CC(C)(C)C)cc21` [compound 293], the figures for the IC50 in assay [1] (setting [3]) and in assay [2] (setting [4]) were 484 nM and 333 nM, respectively.

Consider `CO[C@H](C)C(=O)N[C@@H](Cc1ccc2c(c1)OC(F)(F)O2)[C@H](O)CN[C@H]1CC2(CCC2)Oc2ncc(CC(C)(C)C)cc21` [compound 295], for which the IC50 in assay [1] (setting [3]) came to 96.9 nM; in assay [2] (setting [4]), 1330 nM.

As to `CO[C@@H](C)C(=O)N[C@@H](Cc1ccc2c(c1)OC(F)(F)O2)[C@H](O)CN[C@H]1CC2(CCC2)Oc2ncc(CC(C)(C)C)cc21` [compound 296], the IC50 in assay [1] (setting [3]) worked out at 102 nM; in assay [2] (setting [4]), 575 nM.

For the compound `COC(C)C(=O)NC(Cc1cc(F)c2c(c1)OCO2)C(O)CNC1CC2(CCC2)Oc2ncc(CC(C)(C)C)cc21` (centres unmarked) [compound 300], the figures for the IC50 in assay [1] (setting [3]) and in assay [2] (setting [4]) were 57.1 nM and 137 nM, respectively.

As for `CO[C@H](C)C(=O)N[C@@H](Cc1cccc(F)c1)[C@H](O)CN[C@H]1CC2(CCC2)Oc2ncc(CC(C)(C)F)cc21` [compound 301], the IC50 amounted to 7.81 nM in assay [1] (setting [3]) and 6.99 nM in assay [2] (setting [4]).

Consider `COCC(=O)N[C@@H](Cc1cc(F)c2c(c1)OCO2)[C@H](O)CN[C@H]1CC2(CCC2)Oc2ncc(CC(C)(C)C)cc21` [compound 302], for which the IC50 in assay [1] (setting [3]) was found to be 5.73 nM; in assay [2] (setting [4]), 11.5 nM.

Regarding `CO[C@H](C)C(=O)N[C@@H](Cc1cc(F)c2c(c1)OCO2)[C@H](O)CN[C@H]1CC2(CCC2)Oc2ncc(CC(C)(C)C)cc21` [compound 303], the figures for the IC50 in assay [1] (setting [3]) and in assay [2] (setting [4]) were 9.01 nM and 21.4 nM, respectively.

For `CO[C@@H](C)C(=O)N[C@@H](Cc1cc(F)c2c(c1)OCO2)[C@H](O)CN[C@H]1CC2(CCC2)Oc2ncc(CC(C)(C)C)cc21` [compound 304], the IC50 in assay [1] (setting [3]) worked out at 37.6 nM; in assay [2] (setting [4]), 88.2 nM.

On to `CC(=O)N[C@@H](Cc1cc(F)c2c(c1)OCO2)[C@@H](O)CN[C@H]1CC2(CCC2)Oc2ncc(CC(C)(C)C)cc21` [compound 305, N-((1S,2S)-3-(((4′S)-6′-(2,2-dimethylpropyl)-3′,4′-dihydrospiro[cyclobutane-1,2′-pyrano[2,3-b]pyridin]-4′-yl)amino)-1-((7-fluoro-1,3-benzodioxol-5-yl)methyl)-2-hydroxypropyl)acetamide], for which the IC50 in assay [1] (setting [3]) worked out at 37.9 nM; in assay [2] (setting [4]), 58 nM.

`CC(=O)N[C@@H](Cc1cc(F)c2c(c1)OCO2)[C@H](O)CN[C@H]1CC2(CCC2)Oc2ncc(CC(C)(C)C)cc21` [compound 306]: the IC50 is 4.28 nM in assay [1] (setting [3]) and 7.47 nM in assay [2] (setting [4]).

Take `CC(=O)C(=O)N[C@@H](Cc1ccc2c(c1)OCO2)[C@H](O)CN[C@H]1CC2(CCC2)Oc2ncc(CC(C)(C)C)cc21` [compound 307]: the IC50 in assay [1] (setting [3]) was found to be 31.3 nM; in assay [2] (setting [4]), 68.3 nM.

For the compound `CC(=O)CC(=O)N[C@@H](Cc1ccc2c(c1)OCO2)[C@H](O)CN[C@H]1CC2(CCC2)Oc2ncc(CC(C)(C)C)cc21` [compound 308], the IC50 is 24.4 nM in assay [1] (setting [3]) and 20.9 nM in assay [2] (setting [4]).

In the case of `CC(C)(C)Cc1cnc2c(c1)[C@@H](NC[C@@H](O)[C@H](Cc1ccc3c(c1)OCO3)NC(=O)CCl)CC1(CCC1)O2` [compound 309], the figures for the IC50 in assay [1] (setting [3]) and in assay [2] (setting [4]) were 20.6 nM and 40 nM, respectively.

For the compound `CC(=O)N[C@@H](Cc1ccc(F)cc1)[C@H](O)CN[C@H]1CC2(CCC2)Oc2ncc(CC3(C(F)(F)F)CC3)cc21` [compound 310], the IC50 in assay [1] (setting [3]) came out at 50.5 nM; in assay [2] (setting [4]), 166 nM.

In the case of `COCC(=O)N[C@@H](Cc1ccc(F)cc1)[C@H](O)CN[C@H]1CC2(CCC2)Oc2ncc(CC3(C(F)(F)F)CC3)cc21` [compound 311], the IC50 in assay [1] (setting [3]) was found to be 51.5 nM; in assay [2] (setting [4]), 307 nM.

Turning to `CC(=O)N[C@@H](Cc1ccc2c(c1)OCO2)[C@H](O)CN[C@H]1CC2(CCC2)Oc2ncc(CC3(C(F)(F)F)CC3)cc21` [compound 312], the IC50 in assay [1] (setting [3]) was found to be 61.7 nM; in assay [2] (setting [4]), 197 nM.

As to `COCC(=O)N[C@@H](Cc1ccc2c(c1)OCO2)[C@H](O)CN[C@H]1CC2(CCC2)Oc2ncc(CC3(C(F)(F)F)CC3)cc21` [compound 313], the results for the IC50 in assay [1] (setting [3]) and in assay [2] (setting [4]) were 151 nM and 327 nM, respectively.

For `CC(=O)N[C@@H](Cc1cccc(F)c1)[C@H](O)CN[C@H]1CC2(CCC2)Oc2ncc(C[C@H](C)C(F)(F)F)cc21` [compound 314], the IC50 was found to be 4.19 nM in assay [1] (setting [3]) and 11.3 nM in assay [2] (setting [4]).

Consider `CC(=O)N[C@@H](Cc1cccc(F)c1)[C@H](O)CN[C@H]1CC2(CCC2)Oc2ncc(C[C@@H](C)C(F)(F)F)cc21` [compound 315], for which the IC50 came to 6.11 nM in assay [1] (setting [5]) and 9.43 nM in assay [2] (setting [6]).

Turning to `CC(=O)N[C@@H](Cc1ccccc1)[C@H](O)CN[C@H]1CC2(CCC2)Oc2ncc(C[C@H](C)C(F)(F)F)cc21` [compound 316], the IC50 was found to be 13.6 nM in assay [1] (setting [5]) and 49.7 nM in assay [2] (setting [6]).

In the case of `CC(=O)N[C@@H](Cc1ccccc1)[C@H](O)CN[C@H]1CC2(CCC2)Oc2ncc(C[C@@H](C)C(F)(F)F)cc21` [compound 317], the IC50 in assay [1] (setting [5]) turned out to be 19.7 nM; in assay [2] (setting [6]) it was 27.8 nM.

In the case of `CC(=O)N[C@@H](Cc1ccccc1)[C@H](O)CN[C@H]1CC2(CCC2)Oc2ncc(CC3(C(F)(F)F)CC3)cc21` [compound 318], the IC50 amounted to 34.7 nM in assay [1] (setting [5]) and 85 nM in assay [2] (setting [6]).

In the case of `COCC(=O)N[C@@H](Cc1ccccc1)[C@H](O)CN[C@H]1CC2(CCC2)Oc2ncc(CC3(C(F)(F)F)CC3)cc21` [compound 319], the IC50 was 55.8 nM in assay [1] (setting [5]) and 309 nM in assay [2] (setting [6]).

As to `CC(=O)N[C@@H](Cc1ccc2c(c1)OCO2)[C@H](O)CN[C@H]1CC2(CCC2)Oc2ncc(C[C@H](C)C(F)(F)F)cc21` [compound 320], the results for the IC50 in assay [1] (setting [5]) and in assay [2] (setting [6]) were 155 nM and 120 nM, respectively.

On to `CC(=O)N[C@@H](Cc1ccc2c(c1)OCO2)[C@H](O)CN[C@H]1CC2(CCC2)Oc2ncc(C[C@@H](C)C(F)(F)F)cc21` [compound 321], for which the IC50 stood at 134 nM in assay [1] (setting [5]) and 64.6 nM in assay [2] (setting [6]).

With `CC(=O)N[C@@H](Cc1cccc(F)c1)[C@H](O)CN[C@H]1CC2(CCC2)Oc2ncc([C@H](F)[C@H](C)C(F)(F)F)cc21` [compound 322], the values for the IC50 in assay [1] (setting [5]) and in assay [2] (setting [6]) were 10.9 nM and 39.9 nM, respectively.

As to `COCC(=O)N[C@@H](Cc1cccc(F)c1)[C@H](O)CN[C@H]1CC2(CCC2)Oc2ncc(C[C@H](C)C(F)(F)F)cc21` [compound 325], the IC50 was determined as 3.71 nM in assay [1] (setting [5]) and 13.7 nM in assay [2] (setting [6]).

With `COCC(=O)N[C@@H](Cc1cccc(F)c1)[C@H](O)CN[C@H]1CC2(CCC2)Oc2ncc(C[C@@H](C)C(F)(F)F)cc21` [compound 326], the IC50 came to 7.77 nM in assay [1] (setting [5]) and 27.1 nM in assay [2] (setting [6]).

`COCC(=O)N[C@@H](Cc1cccc(F)c1)[C@H](O)CN[C@H]1CC2(CCC2)Oc2ncc(CC3(C(F)(F)F)CC3)cc21` [compound 327]: the IC50 in assay [1] (setting [5]) stood at 9.85 nM; in assay [2] (setting [6]) it was 60.4 nM.

In the case of `COCC(=O)N[C@@H](Cc1ccccc1)[C@H](O)CN[C@H]1CC2(CCC2)Oc2ncc(CC(C)C)cc21` [compound 328], the IC50 in assay [1] (setting [5]) amounted to 9.19 nM; in assay [2] (setting [6]), 23 nM.

On to `COCC(=O)N[C@@H](Cc1cccc(F)c1)[C@H](O)CN[C@H]1CC2(CCC2)Oc2ncc(CC(C)C)cc21` [compound 329], for which the IC50 in assay [1] (setting [5]) was 3.26 nM; in assay [2] (setting [6]), 6.01 nM.
